The format of this data set is physicochemical. As to conditions: KI method.

Like-named read-outs stand apart in the source and are kept apart here.

The text below walks through data of patent publication US20100003342A1, “Aqueous solution and method of prolonging life of residual chlorine in aqueous solution” (priority 2006, published 2010).

In the case of `[Na+].[O-][Cl+][O-]` [NaClO2], the Residual chlorine concentration result (neutral pH environment) is given as “several”.

`[O-][Cl+3]([O-])([O-])O` [perchloric acid]: the Residual chlorine concentration entry (perchloric acid aqueous solution) is on record as “zero”.
